*1 amine or outer side, *2 acyl side, *3 side chain or, on linkers, in order; H or OH if unused. Where a SMILES comes first, the peptide text is derived from it. Bridges are numbered along the chain shown (N, C = ends). [ ]: non-standard residue; d: D form. The star is where a group is joined. X24 = O=C([C@H](Cc1ccc(C(F)(F)F)cc1)N(CCC(F)(F)F)[*:1])[*:2]; hPhe(3-Cl-4-CF3) = N[C@@H](CCc1ccc(C(F)(F)F)c(Cl)c1)C(=O)O; NMeGly(cPent) = CN[C@H](C(=O)O)C1CCCC1; NMeD = CN[C@@H](CC(=O)O)C(=O)O; NMeL = CN[C@@H](CC(C)C)C(=O)O; Morpholide = C1CN(*)CCO1; Ac5c = NC1(C(=O)O)CCCC1; Sar = CNCC(=O)O
Experiments:
[1] = target: GDP-bound NRAS wild-type protein (Homo sapiens, UniProt P01111); assay: Binding to NRAS by surface plasmon resonance (SPR), Single Cycle Kinetics
Chain of GDP-bound NRAS wild-type protein (P01111 whole entry): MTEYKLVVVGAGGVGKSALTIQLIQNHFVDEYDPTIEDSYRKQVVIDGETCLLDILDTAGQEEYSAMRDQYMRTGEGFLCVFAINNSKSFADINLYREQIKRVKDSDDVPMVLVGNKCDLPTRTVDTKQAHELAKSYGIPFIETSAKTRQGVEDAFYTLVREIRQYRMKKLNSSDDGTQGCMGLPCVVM

[2] = target: GDP-bound HRAS wild-type protein (Homo sapiens, UniProt P01112); assay: Binding to HRAS by surface plasmon resonance (SPR), Single Cycle Kinetics
Chain of GDP-bound HRAS wild-type protein (P01112 whole entry): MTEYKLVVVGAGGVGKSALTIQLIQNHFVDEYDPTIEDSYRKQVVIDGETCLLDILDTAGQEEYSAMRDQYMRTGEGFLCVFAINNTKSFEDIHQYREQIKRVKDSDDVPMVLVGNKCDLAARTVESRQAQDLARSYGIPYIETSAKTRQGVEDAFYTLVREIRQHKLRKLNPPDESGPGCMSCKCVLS

[3] = KD ratio NRAS/KRAS, class symbols
[4] = KD ratio HRAS/KRAS, class symbols

With `CCO[C@@H]1C[C@H]2C(=O)NC3(CCC3)C(=O)N(C)[C@@H](C3CCCC3)C(=O)N(CC)[C@H](C(=O)N3CCOCC3)CC(=O)N(C)[C@@H](COC)C(=O)N[C@@H]([C@@H](C)CC)C(=O)N(C)CC(=O)N(C)[C@H]3CCCCCN(C3=O)[C@@H](Cc3ccc(C(F)(F)F)cc3)C(=O)N(C)CC(=O)N[C@@H](CCc3cc(F)c(C(F)(F)F)c(F)c3)C(=O)N2C1` [PP0946] the “NRAS/KRAS (ratio of KD value with respect to NRAS to KD value with respect to KRAS)” value ([1]; KD ratio, GDP-bound NRAS wild-type vs GDP-bound KRAS wild-type, SPR) was “A (a compound having 10 or more and less than 20 is denoted as A)” and the “HRAS/KRAS (ratio of KD value with respect to HRAS to KD value with respect to KRAS)” value ([2]; KD ratio, GDP-bound HRAS wild-type vs GDP-bound KRAS wild-type, SPR) was “B (a compound having 3 or more and less than 10 is denoted as B)”.
With `CC[C@H](C)[C@@H]1NC(=O)[C@@H]2CCCCc3ccc(cc3)C[C@@H](C(=O)N(C)CC(=O)N[C@@H](CCc3ccc(C(F)(F)F)c(OC)c3)C(=O)N3C[C@H](OC4CCCC4)C[C@H]3C(=O)NC3(CC(C)(C)C3)C(=O)N(C)[C@@H](C3CCCC3)C(=O)N(C)[C@H](C(=O)N(C)C)CC(=O)N2C)N2CC/C=C\C[C@@H](C2=O)N(C)C(=O)CN(C)C1=O` [PP3080] the “NRAS/KRAS (ratio of KD value with respect to GDP-bound NRAS wild-type protein to KD value with respect to KRAS)” value ([1]; KD ratio NRAS/KRAS, SPR, GDP-bound wild-type proteins) was “A (a compound having 10 or more and less than 20 is denoted as A)” and the “HRAS/KRAS (ratio of KD value with respect to GDP-bound HRAS wild-type protein to KD value with respect to KRAS)” value ([2]; KD ratio HRAS/KRAS, SPR, GDP-bound wild-type proteins) was “B (a compound having 3 or more and less than 10 is denoted as B)”.
In the case of `CCC(CC)[C@H]1C(=O)N(C)[C@H](C(=O)N(C)C)CC(=O)N(C)[C@@H](COC)C(=O)N[C@@H]([C@@H](C)CC)C(=O)N(C2CC2)CC(=O)N(C)[C@H]2C/C=C\CCN(C2=O)[C@@H](Cc2ccc(C(F)F)cc2)C(=O)N(C)CC(=O)N[C@@H](CCc2cc(F)c(C(F)(F)F)c(F)c2)C(=O)N2C[C@H](OC3CCC3)C[C@H]2C(=O)NC2(CC(C)(C)C2)C(=O)N1C` [PP2631], the “NRAS/KRAS (ratio of KD value with respect to GDP-bound NRAS wild-type protein to KD value with respect to KRAS)” value [1, 3] is reported as “AA (a compound having 20 or more is denoted as AA)” and the “HRAS/KRAS (ratio of KD value with respect to GDP-bound HRAS wild-type protein to KD value with respect to KRAS)” value [2, 4] is reported as “A (a compound having 10 or more and less than 20 is denoted as A)”.
With `CCO[C@@H]1C[C@H]2C(=O)NC3(CCC3)C(=O)N(C)[C@@H](C3CCCC3)C(=O)N(C)[C@H](C(=O)N3CCCCC3)CC(=O)N(C)[C@H]3CCC/C=C/c4ccc(cc4)C[C@@H](C(=O)N(C)CC(=O)N[C@@H](CCc4cc(F)c(C(F)(F)F)c(F)c4)C(=O)N2C1)N1CC/C=C\C[C@@H](C1=O)N(C)C(=O)CN(C1CC1)C(=O)[C@H]([C@@H](C)CC)NC3=O` [PP2954] the “NRAS/KRAS (ratio of KD value with respect to GDP-bound NRAS wild-type protein to KD value with respect to KRAS)” value [1, 3] was “A (a compound having 10 or more and less than 20 is denoted as A)” and the “HRAS/KRAS (ratio of KD value with respect to GDP-bound HRAS wild-type protein to KD value with respect to KRAS)” value [2, 4] was “A (a compound having 10 or more and less than 20 is denoted as A)”.
With `CCC(CC)[C@H]1C(=O)N(C)[C@H](C(=O)N(C)C)CC(=O)N(C)[C@@H](COC)C(=O)N[C@@H]([C@@H](C)CC)C(=O)N2CCC[C@H]2C(=O)N(C)[C@H]2C/C=C\CCN(C2=O)[C@@H](Cc2ccc(C(F)(F)F)cc2)C(=O)N(C)CC(=O)N[C@@H](CCc2ccc(Cl)c(Cl)c2)C(=O)N2C[C@H](OC3CCC3)C[C@H]2C(=O)NC2(CC(C)(C)C2)C(=O)N1C` [PP2645] the “NRAS/KRAS (ratio of KD value with respect to GDP-bound NRAS wild-type protein to KD value with respect to KRAS)” value [1, 3] was “AA (a compound having 20 or more is denoted as AA)” and the “HRAS/KRAS (ratio of KD value with respect to GDP-bound HRAS wild-type protein to KD value with respect to KRAS)” value [2, 4] was “A (a compound having 10 or more and less than 20 is denoted as A)”.
For `CC[C@H](C)[C@@H]1NC(=O)[C@H](CC(C)C)N(C)C(=O)C[C@@H](C(=O)N2CCOCC2)N(C)C(=O)[C@H](C2CCCC2)N(C)C(=O)C2(CCCC2)NC(=O)[C@@H]2CCCN2C(=O)[C@H](CCc2ccc(C(F)(F)F)c(Cl)c2)NC(=O)CN(C)C(=O)[C@H](Cc2ccc(C(F)(F)F)cc2)N(CCC(F)(F)F)C(=O)CN(C)C(=O)CN(C)C1=O` [PP0131] ([NMeL]I[Sar][Sar][X24][Sar][hPhe(3-Cl-4-CF3)]P[Ac5c][NMeGly(cPent)][NMeD]-Morpholide; lactam N-11), the “NRAS/KRAS (ratio of KD for GDP-bound NRAS wild-type to KD for KRAS)” value ([1]; KD ratio NRAS/KRAS, SPR) was “B (a compound having 3 or more and less than 10 is denoted as B)” and the “HRAS/KRAS (ratio of KD for GDP-bound HRAS wild-type to KD for KRAS)” value ([2]; KD ratio HRAS/KRAS, SPR) was “C (A compound having a KD ratio of 0.1 or more and less than 3 is denoted as C)”.
